The values that follow come from patent US20150164837A1, “USE OF AMPHOTERIC SURFACTANTS FOR THE PREVENTION AND TREATMENT OF PATHOGENIC VAGINAL BIOFILMS IN VAGINAL INFECTIONS” (DR. AUGUST WOLFF GMBH & CO. KG ARZNEIMITTEL, priority 2012, published 2015).

Data set [1] relates to Gardnerella vaginalis biofilms. Kind of data set: Crystal violet staining of biofilm mass, forming (t0) and well developed, still growing (t20m) biofilms. The conditions noted are these: for inhibition of biofilm formation / reduction of cell mass (in words): well developed and still growing biofilms (t20m). Format: cell-based, Gardnerella vaginalis (strain ATCC 14018). As for the experimental part:
(§1) The inhibitory effect of amphoteric surfactants on the formation of Gardnerella vaginalis biofilms were tested in biofilms, grown in 96 well tissue culture test plates. Before starting the biofilm experiments, MIC (minimal inhibitory concentration) values for sodium cocoamphoacetate for planktonic growing Gardnerella vaginalis cultures were determined MIC values for sodium cocoamphoacetate against Gardnerella vaginalis had not been reported so far.
(§2) Gardnerella vaginalis (strain ATCC 14018) were grown on Columbia agar plates supplemented with 5% sheep blood, liquid cultures were grown in brain heart infusion broth supplemented with 2% (w/v) gelatine, 0.5% yeast extract, 0.1% starch and 1% D-(+)-glucose at 37° C. and with the addition of 5% CO2.
For a preculture, bacteria were inoculated from plate or glycerol stock and grew overnight. This preculture was used for starting a new culture. Here the cultivation was performed in microtiter plates in a final volume of […] For testing substances in a forming biofilm (t0), substances were added at this time point. After 20 hours of cultivation, measurements determining the mass of biofilm cells and the biofilm viability were started.
For testing substances in a well developed and further growing biofilm (t20m), medium was gently removed after 20 hours of cultivation and compounds were added in fresh medium for enabling further growth. Incubation was performed for another 20 hours.
At 20 hours (t0) respectively 40 hours of cultivation (t20m) measurements were started, concerning the biofilm formation and viability.
(§3) Crystal violet (CV) staining was used to determine the mass of biofilm cells. For this purpose biofilms grown in 96 well tissue test plates were washed with buffer (PBS, pH of 7.4), dried and stained under shaking with 2% crystal violet in ethanol. After washing with buffer, drying and over night extraction with ethanol, the absorbance (OD620) was measured in a plate reader and the percentage of biomass inhibition was calculated.

Data set [2] has as its system Gardnerella vaginalis biofilms. Kind of data set: Live/Dead BacLight viability staining, forming (t0) and well developed, still growing (t20m) biofilms. Format: cell-based, Gardnerella vaginalis (strain ATCC 14018). To be noted: for inhibition of cell viability (in words): well developed and still growing biofilms (t20m). As for the experimental part: as §1, §2
For a preculture, bacteria were inoculated from plate or glycerol stock and grew overnight. This preculture was used for starting a new culture. Here the cultivation was performed in microtiter plates in a final volume of […] For testing substances in a forming biofilm (t0), substances were added at this time point. After 20 hours of cultivation, measurements determining the mass of biofilm cells and the biofilm viability were started. […]
The viability was determined using the Live/Dead BacLight bacterial viability staining. […] In contrast, propidium iodide penetrates only bacteria with damaged membranes, causing a reduction in the SYTO 9 stain fluorescence when both dyes are present. […] After 15 min of incubation in the dark fluorescence was measured in a microtiter plate reader equipped with detectors and filter sets for monitoring red (630 nm) and green (530 nm) fluorescence. Afterwards the percentage of the reduction of viability was calculated.
The tested substances namely cocoamidopropyl hydroxysultaine, disodium cocamphodiacetate, sodium cocoamphopropionate and sodium lauroamphoacetate were dissolved in fresh media and added to a mature G. vaginalis biofilm (t20m, see Example 1). After another 20 hrs of incubation, the biofilm viability was determined via Live/Dead staining, as described above.

In data set [3] the test system is Gardnerella vaginalis biofilms in the stationary phase. Kind of data set: Biomass of biofilms in the stationary phase (compounds added in PBS to 20 hours old biofilms). Format: cell-based. To be noted: 1 mg/ml to 50 mg/ml. As for the experimental part: as §3, with “calculated. To determine how different concentrations of sodium cocoamphoacetate damage well formed biofilms in the stationary phase, compounds were added in PBS buffer to 20 hours old biofilms and analyzed after further 20 hours of incubation by determining their biomass and viability.” for “calculated.”

The test system of data set [4] is vaginal biofilm (Gardnerella vaginalis, Atopobium vaginae). The conditions noted are these: cited from earlier work.

Take sodium lauroamphoacetate: the “inhibition of biofilm formation / reduction of cell mass (in words)” value in data set [1] was “reduce the cell mass”. The “inhibition of cell viability (in words)” value in data set [2] is “inhibit the viability”.

With sodium cocoamphoacetate, in data set [3], the “reduction in biofilm formation” value is 44-65%. The “inhibition of biofilm formation” value in data set [1] (added at the beginning of biofilm cultivation (t0), concentrations of 0.25 mg/ml and higher) is recorded as “completely inhibited”. Besides, the “decrease of viability of the bacterial cells” value in data set [2] (added at the beginning of biofilm cultivation (t0), 0.25 mg/ml to 1 mg/ml) was 90%.

On to disodium cocamphodiacetate, for which, in data set [1], the “inhibition of biofilm formation / reduction of cell mass (in words)” value is on record as “reduce the cell mass”. Also, in data set [2], the “inhibition of cell viability (in words)” value was “inhibit the viability”.

In the case of `Cc1ncc([N+](=O)[O-])n1CCO` [metronidazole], the “effect on the vaginal biofilm” value in data set [4] (500 mg orally twice daily for 7 days, 18 women) is reported as “did not erase the Gardnerella vaginalis biofilm completely”. Besides, the “Nugent Score after treatment” value in data set [4] (after 7 day treatment with oral metronidazole) was “below 7”.
